Molecules are shown by their SMILES. Several values for one entry are separate records, joined by “and”; a condition that tells them apart may be missing. Equal entries are not always repeated.

As for `CC1(C)CCC(C)(C)c2cc(N(Cc3ccc(F)cc3)C(=O)Nc3ccc(C(=O)O)cc3)ccc21` [Compound 19, 4-[3-(4-fluorobenzyl)-3-(5,5,8,8-tetramethyl-5,6,7,8-tetrahydro-naphthalen-2-yl)-ureido]-benzoic acid], the melting point (usually the temperature, or range, at which the solid turns liquid) is 143 to 146 °C and 143.1 to 145.9 °C.

In turn, `CC1(C)CCC(C)(C)c2cc(N(CCCCOCc3ccccc3)C(=O)Nc3ccc(C(=O)O)cc3)ccc21` [Compound 41, 4-[3-(4-benzyloxy-butyl)-3-(5,5,8,8-tetramethyl-5,6,7,8-tetrahydro-naphthalen-2-yl)-ureido]-benzoic acid] registered a melting point of 158 to 162 °C.

In turn, `CCCCCN(C(=O)Nc1ccc(C(=O)O)cn1)c1ccc2c(c1)C(C)(C)CCC2(C)C` [Compound 49, 6-[3-pentyl-3-(5,5,8,8-tetramethyl-5,6,7,8-tetrahydro-naphthalen-2-yl) -ureido]-nicotinic acid] registered a melting point of 175 to 179.5 °C.

`COc1ccc(CN(C(=O)Nc2ccc(C(=O)O)cc2)c2ccc3c(c2)C(C)(C)CCC3(C)C)cc1` [Compound 23, 4-[3-(4-methoxybenzyl)-3-(5,5,8,8-tetramethyl-5,6,7,8-tetrahydro-naphthalen-2-yl)-ureido]-benzoic acid]: the melting point was 117 to 121 °C and 116.8 to 120.8 °C.

In turn, `CCN(C(=O)N(CC)c1ccc2c(c1)C(C)(C)CCC2(C)C)c1ccc(C(=O)O)cc1` [Compound 73, 4-[1,3-diethyl-3-(5,5,8,8-tetramethyl-5,6,7,8-tetrahydro-naphthalen-2-yl)-ureido]-benzoic acid] displayed a melting point of 169 to 172 °C.

`CCCCCN(C(=O)Nc1ccc2c(c1)C(C)(C)CCC2(C)C)c1ccc(C(=O)O)cc1` [Compound 42, 4-[1-pentyl-3-(5,5,8,8-tetramethyl-5,6,7,8-tetrahydro-naphthalen-2-yl)-ureido]-benzoic acid]: the melting point lay within 201 to 202 °C.

Consider `CC1(C)CCC(C)(C)c2cc(N(CCCCO)C(=O)Nc3ccc(C(=O)O)cc3)ccc21` [Compound 71, 4-[3-(4-hydroxy-butyl)-3-(5,5,8,8-tetramethyl-5,6,7,8-tetrahydro-naphthalen-2-yl)-ureido]-benzoic acid], for which the melting point lay within 124 to 125 °C.

Take `CCOCCN(C(=O)Nc1ccc(C(=O)O)cc1)c1ccc2c(c1)C(C)(C)CCC2(C)C` [Compound 33, 4-[3-(2-ethoxy-ethyl)-3-(5,5,8,8-tetramethyl-5,6,7,8-tetrahydro-naphthalen-2-yl)-ureido]-benzoic acid]: the melting point fell in the range of 82 to 85 °C.

With `CC1(C)CCC(C)(C)c2cc(N(Cc3cccs3)C(=O)Nc3ccc(C(=O)O)cc3)ccc21` [Compound 31, 4-[3-(5,5,8,8-tetramethyl-5,6,7,8-tetrahydro-naphthalen-2yl)-3-thiophen-2-ylmethyl-ureido]-benzoic acid], the melting point is 167 to 170 °C and 167.1 to 170.1 °C.

For the compound `CC1(C)CCC(C)(C)c2cc(N(CCc3ccccc3)C(=O)Nc3ccc(C(=O)O)cc3)ccc21` [Compound 5, 4-[3-phenethyl-3-(5,5,8,8-tetramethyl-5,6,7,8-tetrahydro-naphthalen-2-yl)-ureido]-benzoic acid], the melting point was 223 to 225 °C and 223 to 224.9 °C.

As to `Cc1cc(CN(C(=O)Nc2ccc(C(=O)O)cc2)c2ccc3c(c2)C(C)(C)CCC3(C)C)no1` [Compound 57, 4-[3-(5-methyl-isoxazol-3-ylmethyl)-3-(5,5,8,8-tetramethyl-5,6,7,8-tetrahydro-naphthalen-2-yl)-ureido]-benzoic acid], the melting point is 188 to 193 °C and 188.2 to 193 °C.

On to `CC1(C)CCC(C)(C)c2cc(N(Cc3ccc(Cl)cc3)C(=O)Nc3ccc(C(=O)O)cc3)ccc21` [Compound 21, 4-[3-(4-chlorobenzyl)-3-(5,5,8,8-tetramethyl-5,6,7,8-tetrahydro-naphthalen-2-yl)-ureido]-benzoic acid], for which the melting point was 126 to 133.1 °C and 126 to 133 °C.

Values taken from patent publication US6838472B2, “Substituted urea retinoid agonists” (Syntex (U.S.A.) LLC, priority 2001, dated 2005).
